Like-named read-outs stand apart in the source and are kept apart here.
Assays:
[1] = Stability/compatibility of carglumic acid-excipient binary mixes, HPLC chromatographic purity; format: physicochemical
Experimental: Carglumic acid alone was also stored under the same conditions. […] Chromatographic purity have been tested for all the reported combinations and storage conditions. Under these chromatographic conditions the retention time (Rt) of carglumic acid is about 6.6 min. […] [table] [table]

[2] = cited from earlier work
[3] = 25° C./60% RH Closed bottles, 15 days
[4] = 25° C./60% RH Closed bottles, 30 days
[5] = 25° C./60% RH Open bottles, 7 days
[6] = 25° C./60% RH Open bottles, 15 days
[7] = 40° C./75% RH Closed bottles, 15 days
[8] = 40° C./75% RH Closed bottles, 30 days

Imp. 1 RRT 1.93 [1, 3]: 0.01% | Imp. 2 RRT 2.21 [1, 3]: 0.00% | Imp. 5a RRT 2.34 [1, 3]: 0.01% | Imp. 5b RRT 2.77 [1, 3]: 0.00% | Imp. 6 RRT 1.20 [1, 3]: 0.00% | Max, single unknown impurity [1, 3]: 0.03% | Total impurities [1, 3]: 0.08% | Imp. 1 RRT 1.93 [1, 4]: 0.03% | Imp. 2 RRT 2.21 [1, 4]: 0.01% | Imp. 5a RRT 2.34 [1, 4]: 0.01% | Imp. 5b RRT 2.77 [1, 4]: 0.00% | Imp. 6 RRT 1.20 [1, 4]: 0.00% | Max, single unknown impurity [1, 4]: 0.03% | Total impurities [1, 4]: 0.08% | Imp. 1 RRT 1.93 [1, 5]: 0.03% | Imp. 2 RRT 2.21 [1, 5]: 0.01% | Imp. 5a RRT 2.34 [1, 5]: 0.02% | Imp. 5b RRT 2.77 [1, 5]: 0.00% | Imp. 6 RRT 1.20 [1, 5]: 0.00% | Max, single unknown impurity [1, 5]: 0.05% | Total impurities [1, 5]: 0.18% | Imp. 1 RRT 1.93 [1, 6]: 0.04% | Imp. 2 RRT 2.21 [1, 6]: 0.01% | Imp. 5a RRT 2.34 [1, 6]: 0.00% | Imp. 5b RRT 2.77 [1, 6]: 0.00% | Imp. 6 RRT 1.20 [1, 6]: 0.00% | Max, single unknown impurity [1, 6]: 0.02% | Total impurities [1, 6]: 0.11% | Imp. 1 RRT 1.93 [1, 7]: 0.03% | Imp. 2 RRT 2.21 [1, 7]: 0.01% | Imp. 5a RRT 2.34 [1, 7]: 0.01% | Imp. 5b RRT 2.77 [1, 7]: 0.01% | Imp. 6 RRT 1.20 [1, 7]: 0.00% | Max, single unknown impurity [1, 7]: 0.02% | Total impurities [1, 7]: 0.12% | Imp. 1 RRT 1.93 [1, 8]: 0.03% | Imp. 2 RRT 2.21 [1, 8]: 0.01% | Imp. 5a RRT 2.34 [1, 8]: 0.01% | Imp. 5b RRT 2.77 [1, 8]: 0.00% | Imp. 6 RRT 1.20 [1, 8]: 0.00% | Max, single unknown impurity [1, 8]: 0.03% | Total impurities [1, 8]: 0.11% | Imp. 1 RRT 1.93 ([1]; 60° C. Closed bottles, 1 day): 0.03% | Imp. 2 RRT 2.21 ([1]; 60° C. Closed bottles, 1 day): 0.01% | Imp. 5a RRT 2.34 ([1]; 60° C. Closed bottles, 1 day): 0.01% | Imp. 5b RRT 2.77 ([1]; 60° C. Closed bottles, 1 day): 0.00% | Imp. 6 RRT 1.20 ([1]; 60° C. Closed bottles, 1 day): 0.00% | Max, single unknown impurity ([1]; 60° C. Closed bottles, 1 day): 0.02% | Total impurities ([1]; 60° C. Closed bottles, 1 day): 0.10% | Imp. 1 RRT 1.93 ([1]; t = 0): 0.02% | Imp. 2 RRT 2.21 ([1]; t = 0): 0.01% | Imp. 5a RRT 2.34 ([1]; t = 0): 0.00% | Imp. 5b RRT 2.77 ([1]; t = 0): 0.01% | Imp. 6 RRT 1.20 ([1]; t = 0): 0.00% | Max, single unknown impurity ([1]; t = 0): 0.03% | Total impurities ([1]; t = 0): 0.07%
Structure (SMILES): NC(=O)N[C@@H](CCC(=O)O)C(=O)O [Carglumic Acid, Carglumic acid]
Solubility ([2]; boiling water): soluble | Solubility ([2]; cold water): slightly soluble | Solubility ([2]; organic solvents (cyclohexane, dichloromethane, ether)): practically insoluble

— patent publication US20200397728A1, “PHARMACEUTICAL FORMULATION FOR CARGLUMIC ACID” (RECORDATI S.p.A., priority 2019, published 2020)
